This note sets out measurements from patent EP2340832A1, “Morphinan-6-one compounds for the treatment or prevention of neurodegenerative diseases” (Universität Innsbruck, priority 2009, dated 2011).

The IC50 is the concentration needed to halve the response being measured. A word on the Ki: it is a measure of affinity in units of concentration, obtained from inhibition or displacement. Read a low Ki as higher affinity. Broadly, the Emax is the maximal effect, on the per cent scale that the assay sets.

Structures are written as SMILES. Where two headings read alike, the source gives them in different places. Where only a bound is given, the exact number is not on record here.

Experiment [1] concerns the target T1, electric eel AChE (EC 3.1.1.7) (Electrophorus electricus, UniProt O42275).
T1 construct: purchased Sigma-Aldrich, Germany
In words: Spectrophotometric assay for AChE inhibitory activity (modified Ellman's method). To be noted: 96-well microplate, 1% DMSO; read-out: AChE inhibitory activity IC50. In kind it is biochemical.

Experiment [2] has as its target T2, δ opioid receptors (Rattus norvegicus, UniProt P33533).
T2 construct: Membrane fractions were prepared from Sprague-Dawley rat or guinea pig brains; from tissue; host or cells: Sprague-Dawley rat brain (without cerebella) membranes
In words: Opioid receptor binding assay, [3H][Ile5,6]deltorphin II, rat brain membranes. Also noted: species or system Sprague-Dawley rat. As for the experimental part: (§1) Briefly, brains without cerebella were homogenised on ice in 5 volumes of ice-cold 50 mM Tris-HCI buffer (pH 7.4) and diluted in 30 volumes of the same buffer. After centrifugation at 40,000 x g for 20 min at 4°C, the pellets were resuspended in 30 volumes of Tris-HCI buffer and incubated at 37 °C for 30 min (rat brain) or for 10 min (guinea pig brain). The centrifugation step was repeated and the final pellets were resuspended in 5 volumes of 50 mM Tris-HCI buffer (pH 7.4) containing 0.32 M sucrose to give a protein concentration of 4 - 6 mg/ml. Protein concentration was determined by the method of Bradford using bovine serum albumin as standard.
(§2) Binding experiments were performed in 50 mM Tris-HCI buffer (pH 7.4) in a final volume of 1 ml containing 0.3 - 0.5 mg protein and different concentrations of the compounds. […] Guinea pig brain membranes were incubated with [^3H]U69,593 (30 min, 30 °C). Non-specific binding was determined in the presence of 10 µM unlabeled naloxone. […] Inhibition constant (Ki) values were calculated from competition binding curves using GraphPad Prism (San Diego, CA, USA) program. The values are expressed as the mean ± S.E.M of 2-4 independent experiments, each performed in duplicate.
(§3) The morphinan-6-one compounds of the present invention were evaluated in in vitro receptor binding assays for their interaction abilities with µ, δ and k opioid receptors. […] The affinities of the compounds at k opioid receptors were determined by displacement of [^3H]U69,593 using guinea pig brain membranes.

The target in experiment [3] is T3, k opioid receptors (Cavia porcellus, UniProt P41144).
T3 construct: Membrane fractions were prepared from Sprague-Dawley rat or guinea pig brains; from tissue; host or cells: guinea pig brain (without cerebella) membranes
In words: Opioid receptor binding assay, [3H]U69,593, guinea pig brain membranes. As for the experimental part:
as §1, §2, §3

For experiment [4], the target named is T4, δ receptor (Rattus norvegicus, UniProt P33533).
T4 construct: Membrane fractions were prepared from Sprague-Dawley rat or guinea pig brains; from tissue; host or cells: Sprague-Dawley rat brain (without cerebella) membranes
Nature of the experiment: [35S]GTPγS functional assay, rat brain membranes, δ receptor. In kind it is biochemical, Sprague-Dawley rat. As for the experimental part:
(§4) Membrane fractions were prepared from Sprague-Dawley rat or guinea pig brains as described above. To determine binding of [^35S]GTPyS, rat or guinea pig brain membranes (10 µg of protein) were incubated for 60 min at 30 °C in Tris-EGTA buffer (50 mM Tris-HCl buffer, 3 mM MgCl2, 1 mM EGTA, […], pH 7.4) containing 30 µM GDP, 0.05 nM [^35S]GTPyS and appropriate concentrations of the respective compounds according to the present invention in a final volume of 1 ml. The reaction was terminated by vacuum filtration through Whatman GF/B glass fibre filters. Filters were washed three times with ice-cold 50 mM Tris-HCI buffer (pH 7.4) and the bound radioactivity was measured by liquid scintillation counting (Beckman Coulter™ LS6500). Basal activity was determined by subtracting the non-specific binding (measured in the presence of 100 µM unlabelled GTPyS) from the total binding (measured in the absence of the compound).
(§5) Stimulation produced by the compound is given as percentage of the basal activity (given as 100%). Functional data, EC50 (nM; half maximal effective concentration) and maximal stimulation Emax (% stimulation over basal level; maximal effective concentration), were calculated by using nonlinear regression analysis and sigmoidal curve fitting GraphPad Prism (San Diego, CA, USA) program. The values are expressed as the mean ± S.E.M of at least 3 independent experiments, each performed in triplicate. Statistical analysis was carried out using SPSS software (SPSS Inc., Chicago, lL, USA) and the Student T-test was used to compare different assay conditions. A ρ value < 0.05 was considered statistically significant.

The target of experiment [5] is T5, K receptor (Cavia porcellus, UniProt P41144).
T5 construct: Membrane fractions were prepared from Sprague-Dawley rat or guinea pig brains; from tissue; host or cells: guinea pig brain (without cerebella) membranes
Type of experiment: biochemical, guinea pig.

Experiment [6] deals with T6, σ receptors labelled by [^3H](+)-pentazocine (σ1) (Cavia porcellus, UniProt Q60492).
T6 construct: from tissue; host or cells: guinea pig brain membranes
Nature of the experiment: Sigma receptor binding assay, [3H](+)-pentazocine. Also noted: species or system guinea pig. As for the experimental part: (§6) Filters were washed three times with 5 ml of ice-cold 10 mM Tris-HCI buffer (pH 8). The bound radioactivity was measured by liquid scintillation counting (Beckman Coulter™ LS6500). […] The values are expressed as the mean ± S.E.M of 2 - 4 independent experiments, each performed in duplicate.

The target in experiment [7] is σ receptors labelled by [^3H]DTG (σ1 + σ2). Nature of the experiment: Sigma receptor binding assay, [3H]DTG. To be noted: read-out: IC50 ± SEM [^3H]DTG (σ1 + σ2); guinea pig brain membranes; compounds 1-5 tested up to 10 µM. As for the experimental part: as §6
Experiment [8] relates to C57BL/6N female mice. In words: Open field (locomotor activity). In kind it is in vivo. An excerpt:
Each mouse was used only once. […] . […] Thereafter it was replaced by the obturator.
The open field consisted of a transparent plastic box with white floor (41 x 41 x 41 cm) equipped with an automated activity monitoring system (True Scan, Coulbourn Instruments, Allentown, Pennsylvania, USA). The illumination at floor level was 150 lux. Mice were individually placed into the centre of the open field and their behaviours were tracked with the activity monitoring system. The time of locomotor activity, the overall distance travelled by the mice and the fraction of locomotor activity in the center area (center distance and center time) were monitored for 10 min. The arena was thoroughly cleaned with wet paper towels and dried at the end of each test.
Statistical analysis: All data from behavioural studies are shown as mean ± SEM. Statistical analysis was performed using the analysis of variance (ANOVA), followed by post hoc multiple comparisons Tukey-Kramer test, except comparison of alternation rates with the theoretical value of chance (defined as 50%) which was evaluated by Wilcoxon signed rank test. All statistical analyses were carried out by using the Graphpad Prism Program, version 4.0, Graphpad software, Inc.

In experiment [9] the test system is extracellular ACh concentration in the nucleus accumbens.
The test system of experiment [10] is C57BL/6N female mice. Nature of the experiment: Object recognition task.
Experiment [11] deals with C57BL/6N female mice. Nature of the experiment: T-maze continuous alternation.
In experiment [12] the target is T7, µ opioid receptor (Rattus norvegicus, UniProt P33535). Nature of the experiment: Opioid receptor binding assay, [3H]DAMGO, rat brain membranes. More on the design: Membrane fractions were prepared from Sprague-Dawley rat or guinea pig brains; from tissue; host or cells: Sprague-Dawley rat brain (without cerebella) membranes; species or system Sprague-Dawley rat. As for the experimental part:
as §1, §2, §3

Experiment [13] has as its target T7, µ opioid receptor. In words: [35S]GTPγS functional assay, rat brain membranes, µ receptor. Type of experiment: biochemical, Sprague-Dawley rat. More on the design: Membrane fractions were prepared from Sprague-Dawley rat or guinea pig brains; from tissue; host or cells: Sprague-Dawley rat brain (without cerebella) membranes. To be noted: rat brain membranes. As for the experimental part: as §4, §5

Experiment [14] concerns the target T7, µ opioid receptor. Described as above. The following applies: read-out: Emax (% of basal activity). Type of experiment: biochemical, Sprague-Dawley rat. More on the design: from tissue; host or cells: Sprague-Dawley rat brain (without cerebella) membranes. As for the experimental part: as §4
Stimulation produced by the compound is given as percentage of the basal activity (given as 100%). Functional data, EC50 (nM; half maximal effective concentration) and maximal stimulation Emax (% stimulation over basal level; maximal effective concentration), were calculated by using nonlinear regression analysis and sigmoidal curve fitting GraphPad Prism (San Diego, CA, USA) program. […]

Setting [15] is: scopolamine 0.033 µmol, compound 0.1 µmol i.c.v.

T5 sequence (P41144 whole entry): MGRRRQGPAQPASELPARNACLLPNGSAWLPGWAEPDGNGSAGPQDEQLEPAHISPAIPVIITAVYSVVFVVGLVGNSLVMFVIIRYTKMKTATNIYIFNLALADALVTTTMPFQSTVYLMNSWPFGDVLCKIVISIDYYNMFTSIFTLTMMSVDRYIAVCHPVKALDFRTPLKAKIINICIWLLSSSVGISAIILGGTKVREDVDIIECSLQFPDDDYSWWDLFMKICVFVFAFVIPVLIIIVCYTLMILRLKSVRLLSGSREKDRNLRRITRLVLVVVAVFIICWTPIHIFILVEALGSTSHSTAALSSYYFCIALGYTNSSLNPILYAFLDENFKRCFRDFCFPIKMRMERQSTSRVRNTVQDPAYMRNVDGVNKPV
T7 sequence (P33535 whole entry): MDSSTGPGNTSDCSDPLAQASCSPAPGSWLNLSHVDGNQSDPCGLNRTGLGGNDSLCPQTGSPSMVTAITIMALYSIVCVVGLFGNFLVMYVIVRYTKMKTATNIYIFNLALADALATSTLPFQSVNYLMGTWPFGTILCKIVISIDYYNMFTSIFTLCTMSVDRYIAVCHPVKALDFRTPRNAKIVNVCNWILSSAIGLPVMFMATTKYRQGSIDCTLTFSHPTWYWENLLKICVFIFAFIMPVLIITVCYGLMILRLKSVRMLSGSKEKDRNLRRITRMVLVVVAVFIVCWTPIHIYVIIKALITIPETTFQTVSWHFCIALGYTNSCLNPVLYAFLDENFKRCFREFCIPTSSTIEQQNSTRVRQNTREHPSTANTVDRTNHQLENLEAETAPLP
T4 sequence (P33533 whole entry): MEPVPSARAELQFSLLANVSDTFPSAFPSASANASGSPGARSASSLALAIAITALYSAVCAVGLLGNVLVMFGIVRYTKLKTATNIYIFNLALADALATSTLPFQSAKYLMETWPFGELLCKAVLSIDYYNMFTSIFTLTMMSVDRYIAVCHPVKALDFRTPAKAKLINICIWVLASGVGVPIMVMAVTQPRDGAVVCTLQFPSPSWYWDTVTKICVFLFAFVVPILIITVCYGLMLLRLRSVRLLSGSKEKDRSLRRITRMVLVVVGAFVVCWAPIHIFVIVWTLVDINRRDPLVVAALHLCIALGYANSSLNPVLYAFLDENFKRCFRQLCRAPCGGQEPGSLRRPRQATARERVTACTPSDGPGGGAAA
T3 sequence (P41144 whole entry): as the sequence (P41144 whole entry) above
T2 sequence (P33533 whole entry): as the sequence (P33533 whole entry) above
T6 sequence (Q60492 whole entry): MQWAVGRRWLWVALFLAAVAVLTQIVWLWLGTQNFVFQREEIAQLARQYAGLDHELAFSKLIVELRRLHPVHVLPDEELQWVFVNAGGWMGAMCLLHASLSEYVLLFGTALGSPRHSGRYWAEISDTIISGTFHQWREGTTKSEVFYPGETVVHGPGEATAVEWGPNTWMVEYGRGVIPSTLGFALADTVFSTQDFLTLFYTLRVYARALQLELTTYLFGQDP
T1 sequence (O42275 24-633): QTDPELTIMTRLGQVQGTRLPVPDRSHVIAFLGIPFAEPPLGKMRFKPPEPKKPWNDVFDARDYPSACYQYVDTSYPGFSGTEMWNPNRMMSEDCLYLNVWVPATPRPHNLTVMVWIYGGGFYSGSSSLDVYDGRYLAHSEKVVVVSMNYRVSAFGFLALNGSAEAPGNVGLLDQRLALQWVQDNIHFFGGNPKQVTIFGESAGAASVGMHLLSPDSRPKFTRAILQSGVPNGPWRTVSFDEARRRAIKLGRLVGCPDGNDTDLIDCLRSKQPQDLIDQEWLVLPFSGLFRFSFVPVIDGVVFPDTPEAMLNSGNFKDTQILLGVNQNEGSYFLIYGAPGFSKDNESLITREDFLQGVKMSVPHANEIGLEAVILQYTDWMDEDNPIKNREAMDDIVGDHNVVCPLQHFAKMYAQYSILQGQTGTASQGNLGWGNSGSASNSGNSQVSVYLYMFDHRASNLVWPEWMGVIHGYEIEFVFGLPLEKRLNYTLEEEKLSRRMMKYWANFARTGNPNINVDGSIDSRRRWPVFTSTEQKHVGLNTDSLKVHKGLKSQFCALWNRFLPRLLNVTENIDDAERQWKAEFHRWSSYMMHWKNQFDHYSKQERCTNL

On to `C=CCN1CC[C@]23CC(=O)CC[C@@]2(OC)[C@H]1Cc1cccc(OC)c13` [Compound 5, 4,14-dimethoxy-N-allyl-morphinan-6-one], for which the IC50 was 81.9 µM in experiment [1], over 10 µM in experiment [6] and over 10 µM in [7]. The Ki in experiment [2] worked out at 1.25 µM; in [3], 0.328 µM; in [12] it was 0.0672 µM. The “[35S]GTPγS binding on co-incubation with naltrindole versus antagonist alone” value in experiment [4] (10 µM each) is reported as “did not produce any significant increase”. For the same compound, the “effect on [35S]GTPγS binding stimulated by SNC 80” value in [4] (compound 10 µM, SNC 80 10 µM) is “did not cause any significant changes”. Moreover, the “effect on [35S]GTPγS binding stimulated by U69,593” value in [5] is “no significant effect”. Moreover, the “[35S]GTPγS binding on co-incubation with Nor-BNI versus antagonist alone” value in experiment [5] (10 µM each, guinea pig brain membranes) is listed as “did not produce any significant increase”. Also, the “[35S]GTPγS binding in the presence of the compound alone” value in [5] (guinea pig brain membranes, compared with U69,593) is “no increase”; in [13] (compared with DAMGO), “no increase”. Besides, the “general locomotion in the open field (move distance, move time)” value in experiment [8] (0.1 µmol i.c.v., 10 min) is reported as “did not influence”. Besides, in experiment [8] (dose not given), the “fraction of locomotor activity in the central zone” value was “did not influence”. The “effect on ACh in the superfusate (in words)” value in [9] (0.5 µmol i.c.v.) is on record as “did not increase brain ACh”; in experiment [9] (1 µmol i.c.v.), “short peak increase”. In addition, in experiment [9] (Dose 1 µmol i.c.v., 0 to 120 min), the “0AUC120 min (% increase x min) Mean ± SEM” value came to 158 ± 111 % increase x min. For the same compound, the “Increase in ACh release (Peak increase as % of basal output)” value in experiment [9] (Dose 1 µmol i.c.v., nucleus accumbens) was found to be 51 ± 43%. For the same compound, the “object recognition (memory)” value in [10] (normal mice, 0.1 µmol i.c.v.) is “increased the exploration ratio”. Besides, the “effect on scopolamine-induced impairment of object recognition” value in experiment [10] (scopolamine-pretreated mice, dose not given) is given as “ineffective”. Also, in [11] (normal mice, 0.1 µmol i.c.v.), the spontaneous alternation rate entry is recorded as “did not influence alternation”. The “effect on scopolamine-enhanced running time” value in [11] (setting [15]) is “further increased”. In experiment [11] (setting [15]), the “effect on scopolamine-impaired alternation” value is “had no effect”. Besides, the “binding to opioid receptor µ (in words)” value in experiment [12] is “some µ opioid receptor affinity”. The “selectivity among opioid receptor types” value in experiment [12] (from binding, Table 3) is on record as “moderate selectivity for the µ type”. In experiment [13] (10 µM each), the “[35S]GTPγS binding on co-incubation with cyprodime versus antagonist alone” value is on record as “did not produce any significant increase”. Further, in experiment [13] (compound 10 µM, DAMGO 10 µM), the “effect on [35S]GTPγS binding stimulated by DAMGO” value is “significantly decreased”.

`C[C@@H](NC(=O)[C@@H](N)Cc1ccc(O)cc1)C(=O)NCC(=O)N(C)[C@@H](Cc1ccccc1)C(=O)NCCO` [DAMGO, [D-Ala^2, Me-Phe ^4, Gly-ol^5]enkephalin]: the Emax in experiment [14] turned out to be 179 ± 5%.
